# Experimental data taken from patent US10556898B2, “Indazolyl-1,2,4-thiadiazolamines and related compounds for inhibition of Rho-associated protein kinase and the treatment of disease” (Lycera Corporation, priority 2016, dated 2020).
# Where two headings read alike, the source gives them in different places.
# What was measured:
# [1] = target: T1, GST-tagged human ROCK1 catalytic domain 1-477 (Homo sapiens, UniProt Q13464); assay: Isolated Enzyme Assay, ROCK1 (LANCE Ultra ULight-CREBtide FRET); format: biochemical; conditions: 30 μM highest concentration tested, read-out: Results from Isolated Enzyme Assay IC50 (μM) ROCK1
# T1 construct: human ROCK1 catalytic domain 1-477 from Carna Biosciences (cat #01-109); purchased Carna Biosciences 01-109; host or cells: baculovirus expression system
# T1 sequence (Q13464 1-477): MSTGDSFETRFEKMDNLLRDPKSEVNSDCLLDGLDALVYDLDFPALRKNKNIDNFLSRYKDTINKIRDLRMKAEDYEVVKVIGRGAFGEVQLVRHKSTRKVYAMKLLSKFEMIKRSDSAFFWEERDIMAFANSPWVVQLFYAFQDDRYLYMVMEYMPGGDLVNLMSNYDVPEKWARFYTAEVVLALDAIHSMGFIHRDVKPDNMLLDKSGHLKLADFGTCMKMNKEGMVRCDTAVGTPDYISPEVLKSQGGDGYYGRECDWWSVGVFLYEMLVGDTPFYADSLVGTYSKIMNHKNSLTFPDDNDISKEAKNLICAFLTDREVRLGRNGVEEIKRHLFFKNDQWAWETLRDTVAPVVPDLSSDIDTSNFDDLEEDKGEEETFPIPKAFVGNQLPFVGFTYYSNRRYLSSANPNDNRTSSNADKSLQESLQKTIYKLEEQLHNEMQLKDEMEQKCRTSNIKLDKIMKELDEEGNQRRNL
# Experimental: (§1) Exemplary compounds were tested for ability to inhibit Rho-associated protein kinase isoform 1 (ROCK1) and Rho-associated protein kinase isoform 2 (ROCK2). Assay procedures and results are described below.
# (§2) Part I—Procedure for Determining ROCK Inhibition Ability of Test Compounds Using an Isolated Enzyme Assay
# (§3) Protein constructs were purified from a baculovirus expression system. The peptide substrate was fluorescent LANCE® Ultra ULight-CREBtide: […] (PerkinElmer, # TRF0107-D). Kinase reactions were carried out in a 10 μL volume in 384-well plates: 50 nM ULight-CREBtide substrate, 2 nM constitutively active ROCK1 or ROCK2 kinase, and test compound in DMSO (or DMSO only for controls) were diluted into assay buffer containing 50 mM Tris-HCl (pH=7.5), 10 mM MgCl2, 1 mM EGTA, 0.01% Tween-20, and 2 mM DTT such that the final concentration of DMSO was 0.5%. After a 90 minute incubation at room temperature on a shaker table, the kinase reaction was stopped by addition of 10 mM EDTA, and phosphorylation of the substrate was detected by adding 1 nM LANCE® Ultra Europium-anti-phospho-CREB (ser133) antibody (PerkinElmer, # TRF0200-D) and incubating for 60 minutes on a shaker at room temperature. The fluorescence resonance energy transfer (FRET) signals were read and analyzed on an Envision™ 2103 Multilabel Reader (Perkin Elmer). The concentration of test compound required to inhibit substrate phosphorylation by 50% (the IC50) was calculated by non-linear regression using GraphPad PRIZM.
# [2] = target: T2, GST-tagged human ROCK2 catalytic domain 1-553 (Homo sapiens, UniProt O75116); assay: Isolated Enzyme Assay, ROCK2 (LANCE Ultra ULight-CREBtide FRET); format: biochemical; conditions: 30 μM highest concentration tested, read-out: Results from Isolated Enzyme Assay IC50 (μM) ROCK2
# T2 construct: GST-tagged human ROCK2 catalytic domain 1-553 from Carna Biosciences (Cat #01-110); purchased Carna Biosciences 01-110; host or cells: baculovirus expression system
# T2 sequence (O75116 1-553): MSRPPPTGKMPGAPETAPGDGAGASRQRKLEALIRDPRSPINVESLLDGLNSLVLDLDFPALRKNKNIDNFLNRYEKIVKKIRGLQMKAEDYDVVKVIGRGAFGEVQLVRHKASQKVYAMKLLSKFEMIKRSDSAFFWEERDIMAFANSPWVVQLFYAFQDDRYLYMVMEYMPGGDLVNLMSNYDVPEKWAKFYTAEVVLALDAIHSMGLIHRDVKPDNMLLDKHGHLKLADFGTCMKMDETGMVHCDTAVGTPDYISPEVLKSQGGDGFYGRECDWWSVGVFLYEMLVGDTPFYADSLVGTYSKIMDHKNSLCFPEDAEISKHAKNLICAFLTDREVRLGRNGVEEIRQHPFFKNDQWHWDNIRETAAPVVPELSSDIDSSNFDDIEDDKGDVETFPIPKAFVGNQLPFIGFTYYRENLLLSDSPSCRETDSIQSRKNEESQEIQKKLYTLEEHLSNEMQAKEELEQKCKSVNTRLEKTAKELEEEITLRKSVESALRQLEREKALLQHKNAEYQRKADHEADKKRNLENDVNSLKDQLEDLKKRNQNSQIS
# Experimental: as §1, §2, §3
# ROCK2 = target: T3, ROCK2 (Homo sapiens, UniProt O75116); assay: Cell-Based Assay, ROCK2 (HAP1 knockout cells, phospho-MYPT1 Thr853 ELISA); conditions: phospho-MYPT1, 30 μM highest concentration tested, read-out: Results from Cell-Based Assay IC50 (μM) ROCK2
# T3 construct: endogenous in cells; host or cells: HAP1 knockout cells
# T3 sequence (O75116 whole entry): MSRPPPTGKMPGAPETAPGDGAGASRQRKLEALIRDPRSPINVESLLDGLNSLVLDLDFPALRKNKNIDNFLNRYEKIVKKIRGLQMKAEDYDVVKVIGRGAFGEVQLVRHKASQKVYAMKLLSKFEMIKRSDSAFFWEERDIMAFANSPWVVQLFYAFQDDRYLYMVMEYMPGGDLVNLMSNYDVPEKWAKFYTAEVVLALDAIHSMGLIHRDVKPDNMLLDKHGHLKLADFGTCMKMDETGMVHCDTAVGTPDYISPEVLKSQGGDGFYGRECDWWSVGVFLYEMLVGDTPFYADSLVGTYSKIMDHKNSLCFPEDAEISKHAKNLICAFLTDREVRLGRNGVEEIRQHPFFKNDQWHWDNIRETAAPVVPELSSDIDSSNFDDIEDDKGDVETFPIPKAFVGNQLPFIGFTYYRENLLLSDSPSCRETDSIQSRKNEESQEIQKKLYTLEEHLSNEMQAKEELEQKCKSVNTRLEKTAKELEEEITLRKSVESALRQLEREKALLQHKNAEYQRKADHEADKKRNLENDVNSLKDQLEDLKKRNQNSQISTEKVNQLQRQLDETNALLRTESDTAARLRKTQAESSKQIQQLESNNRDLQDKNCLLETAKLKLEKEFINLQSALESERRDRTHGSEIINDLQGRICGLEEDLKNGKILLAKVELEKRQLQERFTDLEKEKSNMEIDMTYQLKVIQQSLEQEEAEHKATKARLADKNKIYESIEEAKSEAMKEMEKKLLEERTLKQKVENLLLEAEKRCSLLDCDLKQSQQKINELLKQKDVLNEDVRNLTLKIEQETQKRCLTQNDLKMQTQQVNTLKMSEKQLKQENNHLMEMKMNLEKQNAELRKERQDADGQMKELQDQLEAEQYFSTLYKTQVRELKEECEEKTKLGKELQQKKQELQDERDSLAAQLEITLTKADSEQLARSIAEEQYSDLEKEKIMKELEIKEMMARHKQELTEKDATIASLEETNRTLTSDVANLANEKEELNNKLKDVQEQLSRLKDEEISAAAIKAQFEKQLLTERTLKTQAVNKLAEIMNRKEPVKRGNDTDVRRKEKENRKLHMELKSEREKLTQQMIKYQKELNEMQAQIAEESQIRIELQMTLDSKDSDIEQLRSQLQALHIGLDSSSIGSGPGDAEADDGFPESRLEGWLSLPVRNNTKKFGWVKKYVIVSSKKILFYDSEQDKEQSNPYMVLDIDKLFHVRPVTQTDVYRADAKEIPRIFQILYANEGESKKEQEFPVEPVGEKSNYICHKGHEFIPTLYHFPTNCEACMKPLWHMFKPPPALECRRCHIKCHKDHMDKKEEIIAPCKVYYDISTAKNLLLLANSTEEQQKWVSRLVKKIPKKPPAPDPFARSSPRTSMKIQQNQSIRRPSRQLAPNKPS
# Experimental: Part II—Procedure for Determining ROCK Inhibition Ability of Test Compounds Using a Cell-Base Assay
# The Cell-Based Assay for determining ROCK inhibition ability of test compounds utilized a genetically modified HAP1 cell line engineered to eliminate expression of either ROCK1 or ROCK2. In the procedure, HAP1 knockout cells are grown in Iscove's Modified Dulbecco's Medium that is additionally supplemented with 10% fetal bovine and 1x antibiotic-antimycotic mixture. Cells are plated in 96 well tissue culture plates at 1×10^5 cells/well (100 μL, of cells at 1×10^6/mL). Test compounds are solubilized in DMSO and diluted into the same media used to grow the cells. A 100 μL, aliquot of each compound dilution in media is added to each well containing the HAP1 cells and incubated at 37° C. for 30 minutes. Following compound incubation, the cells are pelleted by centrifugation at 1800 rpm for 5 minutes at 4° C. Media is removed from the cell pellet and the cells lysed and de-salted. An 80 μL, aliquot of each cell lysate is added to a single well of a 96-well high binding ELISA plate which has been pre-coated with a MYPT1 capture antibody and incubated at 4° C. overnight. The following day the ELISA plate is washed 4× with 0.05% Tween-20 in PBS. After washing, an anti-phospho-MYPT1 (Thr853) antibody is added and allowed to bind for 1 hour at room temperature. The wash step is repeated, and then an anti-rabbit HRP detection antibody is added and allowed to incubate at room temperature for 1 hour. The wash step is then repeated and 100 μL/well 1-Step™ Ultra TMB substrate is added to the ELISA plate and allowed to develop for approximately 5 minutes. The reaction is stopped by addition of H2SO4. Absorbance is read at 450 OD. Data is analyzed using GraphPad Prism software to calculate the 50% inhibitory concentration of test compound (IC50).
Structure (SMILES),IC50 ([1]; isolated enzyme),IC50 ([2]; isolated enzyme),IC50 (ROCK2),IC50 ([1]; isolated enzyme assay),IC50 ([2]; isolated enzyme assay)
O=C(Nc1cccc(-c2nsc(Nc3ccc4[nH]ncc4c3)n2)c1)c1c[nH]cn1 [Compound A-1],1 to 15 µM,< 1 µM,,,
O=C(Nc1cccc(-c2nsc(Nc3ccc4[nH]ncc4c3)n2)c1)c1cccnc1 [Compound A-2],> 30 µM,< 1 µM,,,
Cc1n[nH]c2ccc(Nc3nc(-c4ccnc(NC(=O)c5ccnn5C)c4)ns3)cc12 [Compound A-5],> 30 µM,> 30 µM,,,
Cn1nccc1C(=O)Nc1cncc(-c2nsc(Nc3ccc4[nH]ncc4c3Cl)n2)c1 [Compound A-6],> 30 µM,< 1 µM,,,
Cc1n[nH]c2ccc(Nc3nc(-c4cncc(NC(=O)c5ccnn5C)c4)ns3)cc12 [Compound A-7],> 30 µM,> 30 µM,,,
Cc1n[nH]c2ccc(Nc3nc(-c4cccc(NC(=O)c5ccnn5C)c4)ns3)cc12 [Compound A-8],> 30 µM,< 1 µM,,,
Cn1nccc1C(=O)Nc1cc(-c2nsc(Nc3ccc4[nH]ncc4c3Cl)n2)ccn1 [Compound A-9],> 30 µM,< 1 µM,< 1 µM,,
Cc1coc(-c2cccc(-c3nsc(Nc4ccc5[nH]ncc5c4Cl)n3)c2)n1 [Compound A-10],< 1 µM,< 1 µM,< 1 µM,,
Cc1nc(C)c(C(=O)Nc2cccc(-c3nsc(Nc4ccc5[nH]ncc5c4Cl)n3)c2)s1 [Compound A-11],< 1 µM,< 1 µM,< 1 µM,,
Cc1cc(C(=O)Nc2cccc(-c3nsc(Nc4ccc5[nH]ncc5c4Cl)n3)c2)n(C)n1 [Compound A-12],< 1 µM,< 1 µM,< 1 µM,,
Cn1nc(C(=O)Nc2cccc(-c3nsc(Nc4ccc5[nH]ncc5c4Cl)n3)c2)cc1C(F)(F)F [Compound A-13],< 1 µM,< 1 µM,< 1 µM,,
O=C(Nc1cccc(-c2nsc(Nc3ccc4[nH]ncc4c3Cl)n2)c1)c1cnc[nH]1 [Compound A-14],< 1 µM,< 1 µM,< 1 µM,,
Cc1nn(C)cc1C(=O)Nc1cccc(-c2nsc(Nc3ccc4[nH]ncc4c3Cl)n2)c1 [Compound A-15],< 1 µM,< 1 µM,< 1 µM,,
Cn1cc(-c2nsc(Nc3ccc4[nH]ncc4c3Cl)n2)cc(NC(=O)c2cnccn2)c1=O [IV-1],,,,> 30 µM,< 1 µM
CC(C)N1CCN(c2cc(-c3nsc(Nc4ccc5[nH]ncc5c4Cl)n3)cn(C)c2=O)C1=O [IV-3],,,,1 to 15 µM,< 1 µM
Cn1cc(-c2nsc(Nc3ccc4[nH]ncc4c3Cl)n2)cc(N2CCOC2=O)c1=O [IV-4],,,,> 30 µM,< 1 µM
Cn1cc(-c2nsc(Nc3ccc4[nH]ncc4c3Cl)n2)cc(N2CCCC2=O)c1=O [IV-11],,,,> 30 µM,1 to 15 µM
CS(=O)(=O)Nc1cccc(-c2nsc(Nc3ccc4[nH]ncc4c3Cl)n2)c1 [IV-16],,,,1 to 15 µM,< 1 µM
O=C(Nc1cncc(-c2nsc(Nc3ccc4[nH]ncc4c3Cl)n2)c1)c1cncs1 [IV-18],,,,> 30 µM,< 1 µM
Cc1cc(=O)n(-c2cc(-c3nsc(Nc4ccc5[nH]ncc5c4Cl)n3)ccn2)n1C [IV-23],,,,< 1 µM,< 1 µM
O=C(Nc1cncc(-c2nsc(Nc3ccc4[nH]ncc4c3Cl)n2)c1)c1cocn1 [IV-36],,,,> 30 µM,< 1 µM
Cc1cc(NC(=O)c2cc(C)nn2C)cc(-c2nsc(Nc3ccc4[nH]ncc4c3Cl)n2)n1 [IV-37],,,,> 30 µM,< 1 µM
O=S(=O)(Nc1cccc(-c2nsc(Nc3ccc4[nH]ncc4c3Cl)n2)c1)c1cccnc1 [IV-40],,,,> 30 µM,1 to 15 µM
Cc1nc(S(=O)(=O)Nc2cccc(-c3nsc(Nc4ccc5[nH]ncc5c4Cl)n3)c2)cn1C [IV-41],,,,< 1 µM,1 to 15 µM

Structure (SMILES),IC50 ([1]; isolated enzyme),IC50 ([2]; isolated enzyme),IC50 (ROCK2),IC50 ([1]; isolated enzyme assay),IC50 ([2]; isolated enzyme assay)
Cc1c(S(=O)(=O)Nc2cccc(-c3nsc(Nc4ccc5[nH]ncc5c4Cl)n3)c2)cnn1C(F)F [IV-51],,,,15 to 30 µM,1 to 15 µM
O=C1CCCN1c1cc(-c2nsc(Nc3ccc4[nH]ncc4c3Cl)n2)ccn1 [IV-52],,,,< 1 µM,< 1 µM
O=c1ccccn1-c1cccc(-c2nsc(Nc3ccc4[nH]ncc4c3Cl)n2)c1 [IV-53],,,,1 to 15 µM,1 to 15 µM
CN(C)CCn1cnc2c(-c3nsc(Nc4ccc5[nH]ncc5c4Cl)n3)cccc21 [IV-67],,,,1 to 15 µM,1 to 15 µM
O=C(c1cccc(-c2nsc(Nc3ccc4[nH]ncc4c3Cl)n2)c1)N1CCOCC1 [IV-80],,,,1 to 15 µM,1 to 15 µM
O=C(c1cccc(-c2nsc(Nc3ccc4[nH]ncc4c3Cl)n2)c1)N1CCc2ccccc2C1 [IV-84],,,,> 30 µM,< 1 µM
CN1CCN(C(=O)c2cccc(-c3nsc(Nc4ccc5[nH]ncc5c4Cl)n3)c2)CC1 [IV-85],,,,1 to 15 µM,1 to 15 µM
O=C(c1cccc(-c2nsc(Nc3ccc4[nH]ncc4c3Cl)n2)c1)N1CCCC1 [IV-86],,,,1 to 15 µM,1 to 15 µM
CN(C)C(=O)c1cccc(-c2nsc(Nc3ccc4[nH]ncc4c3Cl)n2)c1 [IV-87],,,,> 30 µM,1 to 15 µM
Cn1cc(-c2nsc(Nc3ccc4[nH]ncc4c3Cl)n2)cc(C(=O)O)c1=O [IV-91],,,,> 30 µM,> 30 µM
O=C1CCCN1c1cc(-c2nsc(Nc3ccc4[nH]ncc4c3Cl)n2)cn2ccnc12 [IV-92],,,,> 30 µM,> 30 µM
Cc1coc(-c2cccc(-c3nsc(Nc4cc5cn[nH]c5cc4F)n3)c2)n1 [IV-93],,,,> 30 µM,> 30 µM
Cn1nccc1C(=O)NC[C@@H]1CCN(c2nsc(Nc3ccc4[nH]ncc4c3Cl)n2)C1 [IV-94],,,,> 30 µM,> 30 µM
O=c1c2ccccc2ncn1-c1cccc(-c2nsc(Nc3ccc4[nH]ncc4c3Cl)n2)c1 [IV-95],,,,> 30 µM,> 30 µM
O=C(Nc1cc(-c2nsc(Nc3ccc4[nH]ncc4c3Cl)n2)ccn1)c1cocn1 [IV-96],,,,> 30 µM,> 30 µM
Cc1nn(C(F)F)cc1S(=O)(=O)Nc1cccc(-c2nsc(Nc3ccc4[nH]ncc4c3Cl)n2)c1 [IV-98],,,,> 30 µM,> 30 µM
CS(=O)(=O)c1cccc(-c2nsc(Nc3ccc4[nH]ncc4c3Cl)n2)c1 [IV-99],,,,> 30 µM,> 30 µM
N#Cc1c(Nc2nc(-c3cccc([N+](=O)[O-])c3)ns2)ccc2[nH]ncc12 [IV-100],,,,> 30 µM,> 30 µM
CP(C)(=O)c1cccc(-c2nsc(Nc3ccc4[nH]ncc4c3Cl)n2)c1 [IV-102],,,,> 30 µM,> 30 µM
O=C(Cn1cc(Cl)cn1)Nc1cccc(-c2nsc(Nc3ccc4[nH]ncc4c3Cl)n2)c1 [IV-104],,,,> 30 µM,> 30 µM
NC[C@@H]1CCCN1c1nsc(Nc2ccc3[nH]ncc3c2Cl)n1 [IV-109],,,,15 to 30 µM,> 30 µM
Cn1nccc1C(=O)NC[C@@H]1CCCN1c1nsc(Nc2ccc3[nH]ncc3c2Cl)n1 [IV-110],,,,> 30 µM,15 to 30 µM
Cc1nc2ccccc2c(=O)n1-c1cccc(-c2nsc(Nc3ccc4[nH]ncc4c3Cl)n2)c1 [IV-111],,,,> 30 µM,1 to 15 µM
